Source: patent publication US9364496B2 (ONCOGENEX TECHNOLOGIES INC., priority 2013, dated 2016)
“And” between values parts separate entries of the source, which are not always exact repeats. Equal values may be shown once. “Also recorded” adds a separate entry of the source. Read-outs that look alike come from different tables or passages of the source.

How the values were obtained:
[1] = cited from earlier work
[2] = Randomized Phase 2 Study OGX-011-03, custirsen plus docetaxel vs docetaxel; details: per arm
[3] = test system: RPMI 8226 (human myeloma) xenograft; experiment: In vivo activity of custirsen with Velcade, RPMI 8226 xenograft (Example 14); details: for efficacy (tumor growth), in words: Velcade 0.5 mg/kg iv; for Day 27 Δ volume / Day 34 Δ volume / Day 41 Δ volume / Day 45 Δ volume: vs Day 20
Description: The cells were implanted subcutaneously into female SCID mice with 7×10^6 cells inoculum.
Tumors and body weights were measured weekly until termination of the study on day 71. Response to treatment was evaluated for tumor growth inhibition (TGI) and tumor growth delay (TGD).
70 CB.17 SCID female mice, 4-6 weeks old, 16-20 grams, obtained from Harlan animal breeding center.
Sample from the cell suspension was taken for counting (0.3 ml in duplicates for CEDEX) before spun down. Cell viability was 85.6% and live cell concentration was 167×10^5 cells/ml. The pellet was resuspended in HBSS to a final volume of 8 ml.
Tumors were implanted subcutaneously with RPMI-8226 cells into the right flank of the mouse on Day 0. Each animal received a s.c. injection 7×10^6 cells in 0.1 ml suspension. On day 20, mice were sorted by the optimal tumor volume ([…]) and were allocated into 5 groups of 10 mice. Mice were individually tagged and their tumor volume and body weight were monitored weekly during the study. Tumor size was measured by caliper and calculated using the formula: […]
The treatment started on […] (0.2 ml per 20 grams v/w) and continued till day 52, after which the remaining mice were left for observation until day 71.

[4] = Velcade 0.5 mg/kg iv biwk, Day 48, individual mice
[5] = Velcade 0.5 mg/kg iv biwk, Day 51, group mean
[6] = Velcade 0.5 mg/kg iv biwk, Day 51, individual mice
[7] = Velcade 0.5 mg/kg iv biwk, day 51
[8] = Velcade 0.5 mg/kg iv biwk, earlier day (day not given), group mean, tumor
[9] = Velcade 0.5 mg/kg iv biwk, earlier day (day not given), individual mouse, tumor
[10] = Velcade 0.5 mg/kg iv biwk, group Mean, n 10
[11] = Velcade 0.5 mg/kg iv biwk, individual mouse
[12] = Velcade 0.5 mg/kg iv biwk, later day (day not given), group mean, tumor
[13] = Velcade 0.5 mg/kg iv biwk, later day (day not given), individual mouse, tumor

Structure (SMILES): CC(=O)O[C@@]12CO[C@@H]1C[C@H](O)[C@@]1(C)C(=O)[C@H](O)C3=C(C)[C@@H](OC(=O)[C@H](O)[C@@H](NC(=O)OC(C)(C)C)c4ccccc4)C[C@@](O)([C@@H](OC(=O)c4ccccc4)[C@H]21)C3(C)C [Docetaxel]
- grade 4 neutropenia (<500 cells/mm^3), patients ([1]; 60 mg/m^2): 75%
- grade 4 neutropenia (<500 cells/mm^3), patients ([1]; 100 mg/m^2): 85%
- neutropenia (<2,000 neutrophils/mm3), occurrence ([1]; 60-100 mg/m^2): virtually all patients
- incidence of elevated creatinine (primarily grade 1/2) [2]: 5%

Structure (SMILES): CC(C)C[C@H](NC(=O)[C@H](Cc1ccccc1)NC(=O)c1cnccn1)B(O)O [Velcade®, Bortezomib, reference compound]
- efficacy (tumor growth), in words [3]: moderate but not statistically significant efficacy; also recorded: moderate and not statistically significant effect
- volume ([3]; Velcade 0.5 mg/kg iv biwk, Day 48, group mean): 749.8
- volume [3, 4]: 520 and 868 and 757 and 647 and 687 and 470 and 1151 and 789
- Δ volume [3, 4]: 401.6 and 745.2 and 624.2 and 508.9 and 919.1 and 403.8 and 310.7 and 988.8 and 625.7
- volume [3, 5]: 1027.5
- Δ volume [3, 5]: 884.2
- volume [3, 6]: 767 and 1043 and 1313 and 774 and 1432 and 917 and 1635 and 1195
- Δ volume [3, 6]: 648.2 and 920.6 and 1179.9 and 636.4 and 1291.7 and 474.1 and 768.2 and 418.7 and 1473.4 and 1031.3
- % TGI day 51 [3, 7]: 28%
- No. of CR [3, 7]: 0
- No. of PR [3, 7]: 0
- No. of TRD [3, 7]: 0
- No. og nTRD [3, 7]: 0
- Δ mean tumor volume, (mean ± se) [3, 7]: 884 ± 356
- volume [3, 8]: 1366.1
- Δ volume [3, 8]: 1224.9
- volume [3, 9]: 1019 and 1659 and 1885 and 779 and 2196 and 721 and 1500 and 885 and 1651
- Δ volume [3, 9]: 900.3 and 1536.1 and 1752.5 and 640.9 and 2055.5 and 1351.3 and 724.9 and 1487.1
- Day 20 volume [3, 10]: 143.2
- Day 27 volume [3, 10]: 213.1
- Day 34 volume [3, 10]: 251.6
- Day 41 volume [3, 10]: 422.8
- Day 27 Δ volume [3, 10]: 69.9
- Day 34 Δ volume [3, 10]: 108.3
- Day 41 Δ volume [3, 10]: 279.5
- Day 45 Δ volume [3, 10]: 431.8
- Day 20 volume [3, 11]: 133 and 138 and 141 and 145 and 149 and 160 and 162 and 164
- Day 27 volume [3, 11]: 225 (2×) and 260 and 235 and 253 and 206 and 231 and 149 and 185 and 162
- Day 34 volume [3, 11]: 185 and 232 and 255 and 286 and 266 and 285 and 272 and 162 and 343 and 230
- Day 41 volume [3, 11]: 289 and 481 and 501 and 387 and 491 and 443 and 475 and 269 and 528 and 384
- Day 45 volume [3, 11]: 430 and 667 and 507 and 733 and 495 and 663 and 351 and 744
- Day 27 Δ volume [3, 11]: 137.0 and 102.2 and 115.3 and 65.3 and 85.8 and −0.6 and 25.6 and 63.7 and −2.2
- Day 34 Δ volume [3, 11]: 66.0 and 109.0 and 148.3 and 140.0 and 2.9 and 181.4 and 65.9
- Day 41 Δ volume [3, 11]: 170.3 and 358.8 and 368.2 and 249.1 and 349.9 and 297.3 and 325.8 and 109.0 and 366.6 and 200.2
- Day 45 Δ volume [3, 11]: 311.5 and 488.4 and 368.7 and 350.1 and 514.1 and 191.8 and 374.8
- volume [3, 12]: 1236.8
- Δ volume [3, 12]: 1096.4
- volume [3, 13]: 1484 and 881 and 1166 and 1417
- Δ volume [3, 13]: 1365.3 and 742.6 and 1020.7 and 1257.1
- efficacy (tumor growth), in words ([3]; listed as Velcade): moderate
